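Interpolation was linear, between the two tested concentrations surrounding the appropriate level; five concentrations were tested over 48 hours in 96-well plates. The concentration for 50% growth inhibition is given as GI50. TGI: total growth inhibition.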
Tests used:
Assay in all cases: DTP human tumour cell line panel, 48 h
[1] = tested on: 786-0 renal
[2] = tested on: A498 renal
[3] = tested on: A549 NSCLC
[4] = tested on: ACHN renal
[5] = tested on: BT-549 breast
[6] = tested on: CAKI-1 renal
[7] = tested on: CCRF-CEM leukemia
[8] = tested on: COLO 205 colon
[9] = tested on: DU-145 prostate
[10] = tested on: HCC-2998 colon
[11] = tested on: HCT-116 colon
[12] = tested on: HCT-15 colon
[13] = tested on: HL-60(TB) leukemia
[14] = tested on: HOP-62 NSCLC
[15] = tested on: HOP-92 NSCLC
[16] = tested on: HS 578T breast
[17] = tested on: HT29 colon
[18] = tested on: IGROV1 ovarian
[19] = tested on: K-562 leukemia
[20] = tested on: KM12 colon
[21] = tested on: LOX IMVI melanoma
[22] = tested on: M14 melanoma
[23] = tested on: MALME-3M melanoma
[24] = tested on: MCF7 breast
[25] = tested on: MDA-MB-231 breast
[26] = tested on: MDA-MB-435
[27] = tested on: MOLT-4 leukemia
[28] = tested on: NCI-H226 lung
[29] = tested on: NCI-H23 lung
[30] = tested on: NCI-H460 lung
[31] = tested on: NCI-H522 lung
[32] = tested on: NCI/ADR-RES ovarian
[33] = tested on: OVCAR-3 ovarian
[34] = tested on: OVCAR-4 ovarian
[35] = tested on: OVCAR-5 ovarian
[36] = tested on: OVCAR-8 ovarian
[37] = tested on: PC-3 prostate
[38] = tested on: RPMI-8226 leukemia
[39] = tested on: RXF 393 renal
[40] = tested on: SF-268 CNS
[41] = tested on: SF-295 CNS
[42] = tested on: SF-539 CNS
[43] = tested on: SK-MEL-2 melanoma
[44] = tested on: SK-MEL-28 melanoma
[45] = tested on: SK-MEL-5 melanoma
[46] = tested on: SK-OV-3 ovarian
[47] = tested on: SN12C renal
[48] = tested on: SNB-19 CNS
[49] = tested on: SNB-75 CNS
[50] = tested on: SR leukemia
[51] = tested on: SW-620 colon
[52] = tested on: T-47D breast
[53] = tested on: TK-10 renal
[54] = tested on: U251 CNS
[55] = tested on: UACC-257 melanoma
[56] = tested on: UACC-62 melanoma
[57] = tested on: UO-31 renal
[58] = tested on: EKVX NSCLC

SMILES: Cn1c(=O)c(Cc2ccc(F)cc2F)cc2cnc(NC3CCOCC3)nc21
- GI50 [1]: > 25 µM
- TGI [1]: > 25 µM
- GI50 [2]: 12.3 µM
- TGI [2]: > 25 µM
- GI50 [3]: > 25 µM
- TGI [3]: > 25 µM
- GI50 [4]: > 25 µM
- TGI [4]: > 25 µM
- GI50 [5]: > 16.6 µM
- TGI [5]: > 25 µM
- GI50 [6]: > 19.4 µM
- TGI [6]: > 25 µM
- GI50 [7]: > 25 µM
- TGI [7]: > 25 µM
- GI50 [8]: > 25 µM
- TGI [8]: > 25 µM
- GI50 [9]: > 25 µM
- TGI [9]: > 25 µM
- GI50 [10]: > 25 µM
- TGI [10]: > 25 µM
- GI50 [11]: > 25 µM
- TGI [11]: > 25 µM
- GI50 [12]: > 25 µM
- TGI [12]: > 25 µM
- GI50 [13]: > 25 µM
- TGI [13]: > 25 µM
- GI50 [14]: > 25 µM
- TGI [14]: > 25 µM
- GI50 [15]: 2.13 µM
- TGI [15]: > 25 µM
- GI50 [16]: > 23.6 µM
- TGI [16]: > 25 µM
- GI50 [17]: > 25 µM
- TGI [17]: > 25 µM
- GI50 [18]: > 25 µM
- TGI [18]: > 25 µM
- GI50 [19]: > 20.1 µM
- TGI [19]: > 25 µM
- GI50 [20]: > 25 µM
- TGI [20]: > 25 µM
- GI50 [21]: > 25 µM
- TGI [21]: > 25 µM
- GI50 [22]: > 25 µM
- TGI [22]: > 25 µM
- GI50 [23]: > 25 µM
- TGI [23]: > 25 µM
- GI50 [24]: > 25 µM
- TGI [24]: > 25 µM
- GI50 [25]: > 16.2 µM
- TGI [25]: > 25 µM
- GI50 [26]: > 25 µM
- TGI [26]: > 25 µM
- GI50 [27]: > 21.2 µM
- TGI [27]: > 25 µM
- GI50 [28]: > 21.1 µM
- TGI [28]: > 25 µM
- GI50 [29]: > 25 µM
- TGI [29]: > 25 µM
- GI50 [30]: > 25 µM
- TGI [30]: > 25 µM
- GI50 [31]: > 25 µM
- TGI [31]: > 25 µM
- GI50 [32]: > 15.5 µM
- TGI [32]: > 25 µM
- GI50 [33]: > 25 µM
- TGI [33]: > 25 µM
- GI50 [34]: > 21.7 µM
- TGI [34]: > 25 µM
- GI50 [35]: > 25 µM
- TGI [35]: > 25 µM
- GI50 [36]: > 25 µM
- TGI [36]: > 25 µM
- GI50 [37]: > 25 µM
- TGI [37]: > 25 µM
- GI50 [38]: > 23.6 µM
- TGI [38]: > 25 µM
- GI50 [39]: 18.5 µM
- TGI [39]: > 25 µM
- GI50 [40]: > 25 µM
- TGI [40]: > 25 µM
- GI50 [41]: > 25 µM
- TGI [41]: > 25 µM
- GI50 [42]: > 25 µM
- TGI [42]: > 25 µM
- GI50 [43]: > 25 µM
- TGI [43]: > 25 µM
- GI50 [44]: > 25 µM
- TGI [44]: > 25 µM
- GI50 [45]: 11.8 µM
- TGI [45]: > 25 µM
- GI50 [46]: > 25 µM
- TGI [46]: > 25 µM
- GI50 [47]: > 19.8 µM
- TGI [47]: > 25 µM
- GI50 [48]: 24.3 µM
- TGI [48]: > 25 µM
- GI50 [49]: > 17.5 µM
- TGI [49]: > 25 µM
- GI50 [50]: > 25 µM
- TGI [50]: > 25 µM
- GI50 [51]: > 25 µM
- TGI [51]: > 25 µM
- GI50 [52]: 9.47 µM
- TGI [52]: > 25 µM
- GI50 [53]: 14.5 µM
- TGI [53]: > 25 µM
- GI50 [54]: > 25 µM
- TGI [54]: > 25 µM
- GI50 [55]: > 25 µM
- TGI [55]: > 25 µM
- GI50 [56]: > 23.8 µM
- TGI [56]: > 25 µM
- GI50 [57]: 11.5 µM
- TGI [57]: > 25 µM

SMILES: Oc1ccc2ccccc2c1/C=N\Nc1ccccn1
- GI50 [1]: 0.618 µM
- TGI [1]: 4.58 µM
- GI50 [2]: 1.25 µM
- TGI [2]: 7.03 µM
- GI50 [4]: 0.331 µM
- GI50 [5]: 3.84 µM
- TGI [5]: > 54.9 µM
- GI50 [6]: 0.212 µM
- TGI [6]: 0.678 µM
- GI50 [7]: 0.328 µM
- GI50 [8]: 27.6 µM
- TGI [8]: > 100 µM
- GI50 [9]: 0.482 µM
- GI50 [58]: 0.656 µM
- TGI [58]: > 21.6 µM
- GI50 [10]: 4.13 µM
- TGI [10]: > 100 µM
- GI50 [11]: 0.318 µM
- TGI [11]: > 39.2 µM
- GI50 [12]: 0.511 µM
- TGI [12]: > 100 µM
- GI50 [13]: 0.267 µM
- TGI [13]: 0.795 µM
- GI50 [14]: 0.416 µM
- TGI [14]: 17 µM
- GI50 [15]: 0.403 µM
- TGI [15]: > 100 µM
- GI50 [16]: 1.4 µM
- TGI [16]: > 34.5 µM
- GI50 [17]: 39.1 µM
- TGI [17]: > 100 µM
- GI50 [18]: 0.273 µM
- TGI [18]: 2.05 µM
- GI50 [19]: 0.426 µM
- TGI [19]: > 100 µM
- GI50 [20]: 1.09 µM
- TGI [20]: > 100 µM
- GI50 [21]: 0.275 µM
- GI50 [22]: 0.441 µM
- TGI [22]: 5.34 µM
- GI50 [24]: 0.895 µM
- TGI [24]: > 34 µM
- GI50 [25]: 0.463 µM
- TGI [25]: > 43 µM
- GI50 [26]: 0.752 µM
- TGI [26]: > 100 µM
- GI50 [27]: 0.358 µM
- TGI [27]: > 100 µM
- GI50 [28]: 2.2 µM
- TGI [28]: > 41.9 µM
- GI50 [29]: 0.539 µM
- TGI [29]: > 100 µM
- GI50 [30]: 0.336 µM
- TGI [30]: 1.75 µM
- GI50 [31]: 0.413 µM
- GI50 [32]: 0.281 µM
- TGI [32]: 33.3 µM
- GI50 [33]: 0.349 µM
- TGI [33]: > 56.8 µM
- GI50 [34]: 1.24 µM
- TGI [34]: > 100 µM
- GI50 [35]: 4.25 µM
- TGI [35]: > 100 µM
- GI50 [36]: 0.365 µM
- TGI [36]: > 60.4 µM
- GI50 [37]: 0.933 µM
- TGI [37]: > 100 µM
- GI50 [38]: 0.654 µM
- TGI [38]: > 100 µM
- GI50 [39]: 1.55 µM
- TGI [39]: > 57.4 µM
- GI50 [40]: 0.436 µM
- TGI [40]: > 100 µM
- GI50 [41]: 0.64 µM
- TGI [41]: 2 µM
- GI50 [42]: 0.529 µM
- TGI [42]: > 26.8 µM
- TGI [43]: > 49 µM
- GI50 [44]: 8.81 µM
- TGI [44]: > 100 µM
- GI50 [45]: 1.57 µM
- TGI [45]: > 50.1 µM
- GI50 [46]: 0.64 µM
- TGI [46]: > 55 µM
- GI50 [47]: 1.7 µM
- TGI [47]: > 100 µM
- GI50 [48]: 1.33 µM
- TGI [48]: > 100 µM
- GI50 [49]: 1.03 µM
- TGI [49]: 10.3 µM
- GI50 [50]: 0.357 µM
- TGI [50]: > 100 µM
- GI50 [51]: 0.588 µM
- TGI [51]: > 100 µM
- GI50 [52]: 0.97 µM
- TGI [52]: > 100 µM
- GI50 [53]: 4.85 µM
- TGI [53]: > 100 µM
- GI50 [54]: 0.427 µM
- TGI [54]: 97.3 µM
- GI50 [55]: 1.72 µM
- TGI [55]: > 100 µM
- GI50 [56]: 0.692 µM
- TGI [56]: 13.1 µM
- GI50 [57]: 0.114 µM
- TGI [57]: 1.31 µM

Source: PubChem BioAssay (NCI)
